According to patent publication US20250223259A1, “PROTEASE INHIBITORS FOR TREATING OR PREVENTING CORONAVIRUS INFECTION” (Merck Sharp & Dohme LLC, priority 2022, published 2025):

Each compound was assayed against SARS2 coronavirus 3CL protease (Severe acute respiratory syndrome coronavirus 2 (2019-nCoV) (SARS-CoV-2), UniProt P0DTD1) (assay: SARS2 Coronavirus 3CL Protease Assay (FRET)). Settings: SARS2 3CLPro FRET assay; 5 nM enzyme, 30 min pre-incubation with compound, 15 uM peptide substrate, 4 h room temperature.
Format: biochemical
Description: The enzymatic activity of SARS2 coronavirus 3CL protease was determined in a FRET (fluorescence resonance energy transfer)-based assay measuring the cleavage of a peptide substrate by recombinantly expressed and purified enzyme. Cleavage of the peptide SEQ ID NO:1 (CPC Scientific) by SARS2 3CL protease was measured in reaction buffer (50 mM Hepes pH 7.5, 0.01% Triton X-100, 0.01% BSA, 2 mM DTT). SARS2 3CL protease (5 nM final concentration) was pre-incubated with compound for 30 minutes before reaction initiation with peptide substrate (15 uM final concentration). Room temperature reactions (4 h) were quenched by addition of a high dose of inhibitor and read on an appropriate plate reader (excitation wavelength=495 nm, emission wavelength=520 nm). Data were analyzed by a standard 4 parameter fit to determine IC50 values.

Compound	IC50 [nM]
CNC(=O)C(=O)[C@H](CCC(C)(F)F)NC(=O)[C@@H]1[C@@H]2CC[C@@H](C2)CN1C(=O)[C@@H](NC(=O)OC)C(C)(C)C [Example 89, methyl ((S)-1-((1R,2S,5S)-2-(((S)-6,6-difluoro-1-(methylamino)-1,2-dioxoheptan-3-yl)carbamoyl)-3-azabicyclo[3.2.1]octan-3-yl)-3,3-dimethyl-1-oxobutan-2-yl)carbamate]	13
CNC(=O)C(=O)[C@H](CCC(C)(F)F)NC(=O)[C@@H]1CC(F)(F)[C@@H](C)CN1C(=O)[C@@H](NC(=O)OC)C(C)(C)C [Example 91, methyl ((S)-1-((2S,5S)-2-(((S)-6,6-difluoro-1-(methylamino)-1,2-dioxoheptan-3-yl)carbamoyl)-4,4-difluoro-5-methylpiperidin-1-yl)-3,3-dimethyl-1-oxobutan-2-yl)carbamate]	19
CNC(=O)C(=O)[C@H](CCC(C)(F)F)NC(=O)[C@@H]1[C@@H]2[C@H](CN1C(=O)[C@@H](NC(=O)OC)C(C)(C)C)CC2(F)F [Example 92, methyl ((S)-1-((1S,2S,5R)-2-(((S)-6,6-difluoro-1-(methylamino)-1,2-dioxoheptan-3-yl)carbamoyl)-7,7-difluoro-3-azabicyclo[3.2.0]heptan-3-yl)-3,3-dimethyl-1-oxobutan-2-yl)carbamate]	29
COC(=O)N[C@H](C(=O)N1CC[C@]2(C[C@H]1C(=O)N[C@@H](CCC(C)(F)F)C(=O)C(=O)NC1CC1)CC2(F)F)C(C)(C)C [Example 94, methyl ((S)-1-((3S,5S)-5-(((S)-1-(cyclopropylamino)-6,6-difluoro-1,2-dioxoheptan-3-yl)carbamoyl)-1,1-difluoro-6-azaspiro[2.5]octan-6-yl)-3,3-dimethyl-1-oxobutan-2-yl)carbamate]	9
COC(=O)N[C@H](C(=O)N1CC[C@@H](C)C[C@H]1C(=O)N[C@@H](CCC(C)(F)F)C(=O)C(=O)NC1CC1)C(C)(C)C [Example 96, methyl ((S)-1-((2S,4R)-2-(((S)-1-(cyclopropylamino)-6,6-difluoro-1,2-dioxoheptan-3-yl)carbamoyl)-4-methylpiperidin-1-yl)-3,3-dimethyl-1-oxobutan-2-yl)carbamate]	15
CCNC(=O)C(=O)[C@H](CCC(C)(F)F)NC(=O)[C@@H]1[C@H]2CCC[C@H]2CN1C(=O)[C@@H](NC(=O)OC)C(C)(C)C [Example 101, methyl ((S)-1-((1S,3aR,6aS)-1-(((S)-1-(ethylamino)-6,6-difluoro-1,2-dioxoheptan-3-yl)carbamoyl)hexahydrocyclopenta[c]pyrrol-2(1H)-yl)-3,3-dimethyl-1-oxobutan-2-yl)carbamate]	22
COCCNC(=O)C(=O)[C@H](CCC(C)(F)F)NC(=O)[C@@H]1[C@H]2CCC[C@H]2CN1C(=O)[C@@H](NC(=O)OC)C(C)(C)C [Example 102, methyl ((S)-1-((1S,3aR,6aS)-1-(((S)-6,6-difluoro-1-((2-methoxyethyl)amino)-1,2-dioxoheptan-3-yl)carbamoyl)hexahydrocyclopenta[c]pyrrol-2(1H)-yl)-3,3-dimethyl-1-oxobutan-2-yl)carbamate]	61
COC(=O)N[C@H](C(=O)N1CC(F)(F)CC[C@H]1C(=O)N[C@@H](CCC(C)(F)F)C(=O)C(=O)NC1CC1)C(C)(C)C [Example 104, methyl ((S)-1-((S)-2-(((S)-1-(cyclopropylamino)-6,6-difluoro-1,2-dioxoheptan-3-yl)carbamoyl)-5,5-difluoropiperidin-1-yl)-3,3-dimethyl-1-oxobutan-2-yl)carbamate]	740
COC(=O)N[C@H](C(=O)N1C[C@H]2[C@@H]([C@H]1C(=O)N[C@@H](CCC(C)(F)F)C(=O)C(=O)NC1CC1)C2(F)F)C(C)(C)C [Example 111, methyl ((S)-1-((1S,2S,5R)-2-(((S)-1-(cyclopropylamino)-6,6-difluoro-1,2-dioxoheptan-3-yl)carbamoyl)-6,6-difluoro-3-azabicyclo[3.1.0]hexan-3-yl)-3,3-dimethyl-1-oxobutan-2-yl)carbamate]	88
COC(=O)N[C@H](C(=O)N1C[C@H](OC(F)F)C[C@H]1C(=O)N[C@@H](CCC(C)(F)F)C(=O)C(=O)NC1CC1)C(C)(C)C [Example 113, methyl ((S)-1-((2S,4R)-2-(((S)-1-(cyclopropylamino)-6,6-difluoro-1,2-dioxoheptan-3-yl)carbamoyl)-4-(difluoromethoxy)pyrrolidin-1-yl)-3,3-dimethyl-1-oxobutan-2-yl)carbamate]	46
CNC(=O)C(=O)[C@H](CCC(C)(F)F)NC(=O)[C@@H]1[C@H]2CCC[C@H]2CN1C(=O)[C@@H](NC(=O)OC)C12CC(C(F)(F)F)(C1)C2 [Example 114, methyl ((S)-2-((1S,3aR,6aS)-1-(((S)-6,6-difluoro-1-(methylamino)-1,2-dioxoheptan-3-yl)carbamoyl)hexahydrocyclopenta[c]pyrrol-2(1H)-yl)-2-oxo-1-(3-(trifluoromethyl)bicyclo[1.1 1]pentan-1-yl)ethyl)carbamate]	27
CNC(=O)C(=O)[C@H](CCC(C)(F)F)NC(=O)[C@@H]1[C@H]2CCC[C@H]2CN1C(=O)[C@@H](NC(=O)OC)C(C)(C)O [Example 117, methyl ((S)-1-((1S,3aR,6aS)-1-(((S)-6,6-difluoro-1-(methylamino)-1,2-dioxoheptan-3-yl)carbamoyl)hexahydrocyclopenta[c]pyrrol-2(1H)-yl)-3-hydroxy-3-methyl-1-oxobutan-2-yl)carbamate]	14
COC(=O)N[C@H](C(=O)N1C[C@@H]2CCC[C@@H]2[C@H]1C(=O)N[C@@H](CCC(C)(F)F)C(=O)C(=O)NC1CC1)[C@@H](C)OC [Example 118, methyl ((2S,3R)-1-((1S,3aR,6aS)-1-(((S)-1-(cyclopropylamino)-6,6-difluoro-1,2-dioxoheptan-3-yl)carbamoyl)hexahydrocyclopenta[c]pyrrol-2(1H)-yl)-3-methoxy-1-oxobutan-2-yl)carbamate]	14
COC(=O)N[C@H](C(=O)N1C[C@@H]2CCC[C@@H]2[C@H]1C(=O)N[C@@H](CCC(C)(F)F)C(=O)C(=O)NCC(F)(F)F)C(C)(C)C [Example 119, methyl ((S)-1-((1S,3aR,6aS)-1-(((S)-6,6-difluoro-1,2-dioxo-1-((2,2,2-trifluoroethyl)amino)heptan-3-yl)carbamoyl)hexahydrocyclopenta[c]pyrrol-2(1H)-yl)-3,3-dimethyl-1-oxobutan-2-yl)carbamate]	77
CCOC(=O)N[C@H](C(=O)N1C[C@@H]2CCC[C@@H]2[C@H]1C(=O)N[C@@H](CCC(C)(F)F)C(=O)C(=O)NC)C(C)(C)C [Example 120, ethyl ((S)-1-((1S,3aR,6aS)-1-(((S)-6,6-difluoro-1-(methylamino)-1,2-dioxoheptan-3-yl)carbamoyl)hexahydrocyclopenta[c]pyrrol-2(1H)-yl)-3,3-dimethyl-1-oxobutan-2-yl)carbamate]	21
CNC(=O)C(=O)[C@H](CCC(C)(F)F)NC(=O)[C@@H]1[C@H]2CCC[C@H]2CN1C(=O)[C@@H](NC(=O)OCC(F)F)C(C)(C)C [Example 121, 2,2-difluoroethyl ((S)-1-((1S,3aR,6aS)-1-(((S)-6,6-difluoro-1-(methylamino)-1,2-dioxoheptan-3-yl)carbamoyl)hexahydrocyclopenta[c]pyrrol-2(1H)-yl)-3,3-dimethyl-1-oxobutan-2-yl)carbamate]	15
CNC(=O)C(=O)[C@H](CCC(C)(F)F)NC(=O)[C@@H]1[C@H]2CCC[C@H]2CN1C(=O)[C@@H](NC(=O)OCC(F)(F)F)C(C)(C)C [Example 122, 2,2,2-trifluoroethyl ((S)-1-((1S,3aR,6aS)-1-(((S)-6,6-difluoro-1-(methylamino)-1,2-dioxoheptan-3-yl)carbamoyl)hexahydrocyclopenta[c]pyrrol-2(1H)-yl)-3,3-dimethyl-1-oxobutan-2-yl)carbamate]	34
COC(=O)N[C@@H](Cc1noc(C)n1)C(=O)N1C[C@H]2[C@@H]([C@H]1C(=O)N[C@@H](CCC(C)(F)F)C(=O)C(=O)NC1CC1)C2(C)C [Example 123, methyl ((S)-1-((1R,2S,5S)-2-(((S)-1-(cyclopropylamino)-6,6-difluoro-1,2-dioxoheptan-3-yl)carbamoyl)-6,6-dimethyl-3-azabicyclo[3.1.0]hexan-3-yl)-3-(5-methyl-1,2,4-oxadiazol-3-yl)-1-oxopropan-2-yl)carbamate]	29
